Assays:
Experiment in all cases: Test C pre/postemergence
Assay type in all cases: in vivo
[1] = test system: morningglory (Ipomoea coccinea); conditions: for Plant response rating (scale of 0 to 100), Morningglory / Morningglory plant response rating: Postemergence; for Morningglory plant response rating: scale 0 to 100 (0 no effect, 100 complete control); for Plant response rating, Morningglory: Preemergence
How it was run: (§1)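 We sprayed seeded pots preemergence and 2–18 cm seedlings postemergence with test chemicals in a non-phytotoxic solvent mixture including surfactant. Greenhouse plants were visually compared with untreated controls at 12 to 14 days and scored 0 (no effect) to 100 (complete control).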

[2] = test system: lambsquarters (Chenopodium album); conditions: for Plant response rating (scale of 0 to 100), Lambsquarters / Lambsquarters plant response rating: Postemergence; for Lambsquarters plant response rating: scale 0 to 100 (0 no effect, 100 complete control); for Plant response rating, Lambsquarters: Preemergence
How it was run: as §1

[3] = test system: crabgrass (Digitaria sanguinalis); conditions: for Plant response rating (scale of 0 to 100), Crabgrass / Crabgrass plant response rating: Postemergence; for Crabgrass plant response rating: scale 0 to 100 (0 no effect, 100 complete control); for Plant response rating, Crabgrass: Preemergence
How it was run: as §1

[4] = test system: eastern black nightshade (Solanum ptycanthum); conditions: Preemergence
How it was run: as §1

[5] = test system: giant foxtail (Setaria faberii); conditions: for Plant response rating (scale of 0 to 100), Foxtail, Giant / Foxtail, Giant plant response rating: Postemergence; for Foxtail, Giant plant response rating: scale 0 to 100 (0 no effect, 100 complete control); for Plant response rating, Foxtail, Giant: Preemergence
How it was run: as §1

kochia (Kochia scoparia) = conditions: for Plant response rating (scale of 0 to 100), Kochia / Kochia plant response rating: Postemergence; for Kochia plant response rating: scale 0 to 100 (0 no effect, 100 complete control); for Plant response rating, Kochia: Preemergence
How it was run: as §1

[6] = test system: common (oilseed) sunflower (Helianthus annuus); conditions: Preemergence
How it was run: as §1

[7] = test system: johnsongrass (Sorghum halepense); conditions: for Johnsongrass plant response rating: Postemergence, scale 0 to 100 (0 no effect, 100 complete control); for Plant response rating, Johnsongrass: Preemergence
How it was run: as §1

corn (Zea mays) = conditions: for Plant response rating (scale of 0 to 100), Corn / Corn plant response rating: Postemergence; for Corn plant response rating: scale 0 to 100 (0 no effect, 100 complete control); for Plant response rating, Corn: Preemergence
How it was run: as §1

[8] = test system: Surinam grass (Brachiaria decumbens); conditions: for Plant response rating (scale of 0 to 100), Surinam Grass / Surinam Grass plant response rating: Postemergence; for Surinam Grass plant response rating: scale 0 to 100 (0 no effect, 100 complete control); for Plant response rating, Surinam Grass: Preemergence
How it was run: as §1

soybean (Glycine max) = conditions: for Plant response rating (scale of 0 to 100), Soybean / Soybean plant response rating: Postemergence; for Soybean plant response rating: scale 0 to 100 (0 no effect, 100 complete control); for Plant response rating, Soybean: Preemergence
How it was run: as §1

[9] = test system: cocklebur (Xanthium strumarium); conditions: for Plant response rating (scale of 0 to 100), Cocklebur / Cocklebur plant response rating: Postemergence; for Cocklebur plant response rating: scale 0 to 100 (0 no effect, 100 complete control); for Plant response rating, Cocklebur: Preemergence
How it was run: as §1

[10] = 16 g ai/ha, scale 0 to 100, 0 no effect, 100 complete control
[11] = 31 g ai/ha, scale 0 to 100, 0 no effect, 100 complete control
[12] = 62 g ai/ha, scale 0 to 100, 0 no effect, 100 complete control

SMILES: CCOC(=O)C(OC(C)=O)c1nc(C2CC2)nc(N)c1Br (stereo not drawn) [Compound 47]
- Plant response rating (scale of 0 to 100), Morningglory ([1]; 16 g ai/ha): 20
- Plant response rating (scale of 0 to 100), Morningglory ([1]; 31 g ai/ha): 35
- Morningglory plant response rating ([1]; 62 g ai/ha): 40
- Morningglory plant response rating ([1]; 125 g ai/ha): 65
- Plant response rating, Morningglory [1, 10]: 0
- Plant response rating, Morningglory [1, 11]: 0
- Plant response rating, Morningglory [1, 12]: 70
- Plant response rating, Morningglory ([1]; 125 g ai/ha, scale 0 to 100): 100
- Plant response rating (scale of 0 to 100), Lambsquarters ([2]; 16 g ai/ha): 0
- Plant response rating (scale of 0 to 100), Lambsquarters ([2]; 31 g ai/ha): 45
- Lambsquarters plant response rating ([2]; 62 g ai/ha): 70
- Lambsquarters plant response rating ([2]; 125 g ai/ha): 80
- Plant response rating, Lambsquarters [2, 10]: 0
- Plant response rating, Lambsquarters [2, 12]: 85
- Plant response rating, Lambsquarters ([2]; 125 g ai/ha, scale 0 to 100): 95
- Plant response rating (scale of 0 to 100), Crabgrass ([3]; 16 g ai/ha): 0
- Plant response rating (scale of 0 to 100), Crabgrass ([3]; 31 g ai/ha): 0
- Crabgrass plant response rating ([3]; 62 g ai/ha): 0
- Crabgrass plant response rating ([3]; 125 g ai/ha): 20
- Plant response rating, Crabgrass [3, 10]: 20
- Plant response rating, Crabgrass [3, 11]: 100
- Plant response rating, Crabgrass [3, 12]: 100
- Plant response rating, Crabgrass ([3]; 125 g ai/ha, scale 0 to 100): 100
- Plant response rating, Nightshade [4, 10]: 80
- Plant response rating, Nightshade [4, 11]: 85
- Plant response rating, Nightshade [4, 12]: 95
- Plant response rating, Nightshade ([4]; 125 g ai/ha, scale 0 to 100): 100
- Plant response rating (scale of 0 to 100), Foxtail, Giant ([5]; 16 g ai/ha): 0
- Plant response rating (scale of 0 to 100), Foxtail, Giant ([5]; 31 g ai/ha): 0
- Foxtail, Giant plant response rating ([5]; 62 g ai/ha): 0
- Foxtail, Giant plant response rating ([5]; 125 g ai/ha): 0
- Plant response rating, Foxtail, Giant [5, 10]: 0
- Plant response rating, Foxtail, Giant [5, 11]: 0
- Plant response rating, Foxtail, Giant [5, 12]: 0
- Plant response rating, Foxtail, Giant ([5]; 125 g ai/ha, scale 0 to 100): 20
- Plant response rating (scale of 0 to 100), Kochia (kochia (Kochia scoparia); 16 g ai/ha): 0
- Plant response rating (scale of 0 to 100), Kochia (kochia (Kochia scoparia); 31 g ai/ha): 0
- Kochia plant response rating (kochia (Kochia scoparia); 62 g ai/ha): 20
- Kochia plant response rating (kochia (Kochia scoparia); 125 g ai/ha): 100
- Plant response rating, Kochia (kochia (Kochia scoparia); [10]): 0
- Plant response rating, Kochia (kochia (Kochia scoparia); [12]): 0
- Plant response rating, Kochia (kochia (Kochia scoparia); 125 g ai/ha, scale 0 to 100): 100
- Plant response rating, Sunflower [6, 10]: 0
- Plant response rating, Sunflower [6, 11]: 0
- Plant response rating, Sunflower [6, 12]: 20
- Plant response rating, Sunflower ([6]; 125 g ai/ha, scale 0 to 100): 100
- Johnsongrass plant response rating ([7]; 62 g ai/ha): 0
- Johnsongrass plant response rating ([7]; 125 g ai/ha): 0
- Plant response rating, Johnsongrass [7, 10]: 0
- Plant response rating, Johnsongrass [7, 11]: 0
- Plant response rating, Johnsongrass [7, 12]: 0
- Plant response rating, Johnsongrass ([7]; 125 g ai/ha, scale 0 to 100): 0
- Plant response rating (scale of 0 to 100), Corn (corn (Zea mays); 16 g ai/ha): 0
- Plant response rating (scale of 0 to 100), Corn (corn (Zea mays); 31 g ai/ha): 0
- Corn plant response rating (corn (Zea mays); 62 g ai/ha): 0
- Corn plant response rating (corn (Zea mays); 125 g ai/ha): 0
- Plant response rating, Corn (corn (Zea mays); [10]): 0
- Plant response rating, Corn (corn (Zea mays); [11]): 0
- Plant response rating, Corn (corn (Zea mays); [12]): 0
- Plant response rating, Corn (corn (Zea mays); 125 g ai/ha, scale 0 to 100): 0
- Plant response rating (scale of 0 to 100), Surinam Grass ([8]; 16 g ai/ha): 0
- Plant response rating (scale of 0 to 100), Surinam Grass ([8]; 31 g ai/ha): 0
- Surinam Grass plant response rating ([8]; 62 g ai/ha): 0
- Surinam Grass plant response rating ([8]; 125 g ai/ha): 20
- Plant response rating, Surinam Grass [8, 10]: 0
- Plant response rating, Surinam Grass [8, 11]: 0
- Plant response rating, Surinam Grass [8, 12]: 0
- Plant response rating, Surinam Grass ([8]; 125 g ai/ha, scale 0 to 100): 0
- Plant response rating (scale of 0 to 100), Soybean (soybean (Glycine max); 16 g ai/ha): 20
- Plant response rating (scale of 0 to 100), Soybean (soybean (Glycine max); 31 g ai/ha): 40
- Soybean plant response rating (soybean (Glycine max); 62 g ai/ha): 65
- Soybean plant response rating (soybean (Glycine max); 125 g ai/ha): 75
- Plant response rating, Soybean (soybean (Glycine max); [10]): 0
- Plant response rating, Soybean (soybean (Glycine max); [11]): 0
- Plant response rating, Soybean (soybean (Glycine max); [12]): 0
- Plant response rating, Soybean (soybean (Glycine max); 125 g ai/ha, scale 0 to 100): 0
- Plant response rating (scale of 0 to 100), Cocklebur ([9]; 16 g ai/ha): 35
- Plant response rating (scale of 0 to 100), Cocklebur ([9]; 31 g ai/ha): 45
- Cocklebur plant response rating ([9]; 62 g ai/ha): 60
- Cocklebur plant response rating ([9]; 125 g ai/ha): 65
- Plant response rating, Cocklebur [9, 10]: 0
- Plant response rating, Cocklebur [9, 11]: 0
- Plant response rating, Cocklebur [9, 12]: 70
- Plant response rating, Cocklebur ([9]; 125 g ai/ha, scale 0 to 100): 75

Source: patent publication US8802597B2, “Herbicidal pyrimidines” (E I du Pont de Nemours and Company, priority 2003, dated 2014)
